In the supplement of paper PMC11424490:
Counter-ions that a name gives are not always drawn.

How the values were obtained:
[1] = system: NCI-H2122; experiment: combination cScore with sotorasib (Bliss gap around IC50) (%PoC); higher = stronger additive effect
Outline: (§1)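 Scores represent the average Bliss-independence gap, expected minus measured viability, in a field surrounding both monotherapy IC50s, with the top concentrations used when no IC50 was reached. Cells (NCI-H2122, NCI-H358, SW837) were seeded at 500 or 800 per well in 384-well plates, dosed in matrices at 24 h and grown for 72 h, with SW837 grown for 144 h. Viability was measured by CellTiter-Glo, normalised to vehicle wells and fitted with four-parameter curves.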

[2] = system: SW837; experiment: as above
Outline: as §1

Row | Compound | combination cScore with sotorasib [1] | combination cScore with sotorasib [2]
1 | CN(NC(=O)CC(=O)NN(C)C(=S)c1ccccc1)C(=S)c1ccccc1 [Elesclomol] + C=CC(=O)N1CCN(c2nc(=O)n(-c3c(C)ccnc3C(C)C)c3nc(-c4c(O)cccc4F)c(F)cc23)[C@@H](C)C1 [sotorasib] | 13.6 | 13.4
2 | C[C@@H]1C[C@H]2[C@@H]3CCC4=CC(=O)C=C[C@]4(C)[C@@]3(F)[C@@H](O)C[C@]2(C)[C@@]1(O)C(=O)CO [Dexamethasone] + C=CC(=O)N1CCN(c2nc(=O)n(-c3c(C)ccnc3C(C)C)c3nc(-c4c(O)cccc4F)c(F)cc23)[C@@H](C)C1 [sotorasib] | -0.78 | -13.1
3 | O=C(O)c1nn(Cc2ccc(Cl)cc2Cl)c2ccccc12 [Lonidamine] + C=CC(=O)N1CCN(c2nc(=O)n(-c3c(C)ccnc3C(C)C)c3nc(-c4c(O)cccc4F)c(F)cc23)[C@@H](C)C1 [sotorasib] | -0.87 | 2.86
4 | Cc1cn(CCN2CCN(c3ccccc3-c3cc(C#N)cc(C(=O)NCCCN4CCCC4)c3)CC2)c2ccccc12 [LLY-507] + C=CC(=O)N1CCN(c2nc(=O)n(-c3c(C)ccnc3C(C)C)c3nc(-c4c(O)cccc4F)c(F)cc23)[C@@H](C)C1 [sotorasib] | 0.73 | 9.15
5 | Nc1cccc2c1CN(C1CCC(=O)NC1=O)C2=O (stereo not given) [Lenalidomide] + C=CC(=O)N1CCN(c2nc(=O)n(-c3c(C)ccnc3C(C)C)c3nc(-c4c(O)cccc4F)c(F)cc23)[C@@H](C)C1 [sotorasib] | 6.13 | -2.25
6 | O=C(/C=C\n1cnc(-c2cc(C(F)(F)F)cc(C(F)(F)F)c2)n1)NNc1cnccn1 [KPT-330] + C=CC(=O)N1CCN(c2nc(=O)n(-c3c(C)ccnc3C(C)C)c3nc(-c4c(O)cccc4F)c(F)cc23)[C@@H](C)C1 [sotorasib] | 3.63 | 0.325
7 | C/C=C1\NC(=O)[C@H]2CSSCC/C=C/[C@H](CC(=O)N[C@H](C(C)C)C(=O)N2)OC(=O)[C@H](C(C)C)NC1=O [Romidepsin] + C=CC(=O)N1CCN(c2nc(=O)n(-c3c(C)ccnc3C(C)C)c3nc(-c4c(O)cccc4F)c(F)cc23)[C@@H](C)C1 [sotorasib] | 5.9 | 12.7
8 | C=C(c1ccc(C(=O)O)cc1)c1cc2c(cc1C)C(C)(C)CCC2(C)C [Bexarotene] + C=CC(=O)N1CCN(c2nc(=O)n(-c3c(C)ccnc3C(C)C)c3nc(-c4c(O)cccc4F)c(F)cc23)[C@@H](C)C1 [sotorasib] | 14.2 | -2.93
9 | COc1cc(Nc2ncc3c(n2)-c2ccc(Cl)cc2C(c2c(F)cccc2OC)=NC3)ccc1C(=O)O [MLN8237] + C=CC(=O)N1CCN(c2nc(=O)n(-c3c(C)ccnc3C(C)C)c3nc(-c4c(O)cccc4F)c(F)cc23)[C@@H](C)C1 [sotorasib] | -3.51 | 10.3
10 | C[C@@H]1CCN(C(=O)CC#N)C[C@@H]1N(C)c1ncnc2[nH]ccc12 [Tofacitinib citrate] + C=CC(=O)N1CCN(c2nc(=O)n(-c3c(C)ccnc3C(C)C)c3nc(-c4c(O)cccc4F)c(F)cc23)[C@@H](C)C1 [sotorasib] | 1.35 | 2.98
11 | COc1cc2c(NC3CCN(C(C)C)CC3)nc(C3CCCCC3)nc2cc1OCCCN1CCCC1 [UNC0638] + C=CC(=O)N1CCN(c2nc(=O)n(-c3c(C)ccnc3C(C)C)c3nc(-c4c(O)cccc4F)c(F)cc23)[C@@H](C)C1 [sotorasib] | -0.46 | 9.19
12 | C[C@H](Cc1ccc(O)c(O)c1)[C@@H](C)Cc1ccc(O)c(O)c1 [Masoprocol] + C=CC(=O)N1CCN(c2nc(=O)n(-c3c(C)ccnc3C(C)C)c3nc(-c4c(O)cccc4F)c(F)cc23)[C@@H](C)C1 [sotorasib] | -1.02 | 1.64
13 | Cc1[nH]c(/C=C2\C(=O)Nc3ccc(S(=O)(=O)Cc4c(Cl)cccc4Cl)cc32)c(C)c1C(=O)N1CCC[C@@H]1CN1CCCC1 + C=CC(=O)N1CCN(c2nc(=O)n(-c3c(C)ccnc3C(C)C)c3nc(-c4c(O)cccc4F)c(F)cc23)[C@@H](C)C1 [sotorasib] | 0.62 | -0.04
14 | CC[C@H](C)C(=O)O[C@H]1C[C@@H](C)C=C2C=C[C@H](C)[C@H](CC[C@@H]3C[C@@H](O)CC(=O)O3)[C@H]21 [Lovastatin] + C=CC(=O)N1CCN(c2nc(=O)n(-c3c(C)ccnc3C(C)C)c3nc(-c4c(O)cccc4F)c(F)cc23)[C@@H](C)C1 [sotorasib] | -1.83 | -0.46
15 | CCCS(=O)(=O)Nc1ccc(F)c(C(=O)c2c[nH]c3ncc(Cl)cc23)c1F [PLX4720] + C=CC(=O)N1CCN(c2nc(=O)n(-c3c(C)ccnc3C(C)C)c3nc(-c4c(O)cccc4F)c(F)cc23)[C@@H](C)C1 [sotorasib] | 17.4 | 2.2
16 | CC(C)(C)c1cc(NC(=O)Nc2ccc(-c3cn4c(n3)sc3cc(OCCN5CCOCC5)ccc34)cc2)no1 [Quizartinib] + C=CC(=O)N1CCN(c2nc(=O)n(-c3c(C)ccnc3C(C)C)c3nc(-c4c(O)cccc4F)c(F)cc23)[C@@H](C)C1 [sotorasib] | -1.22 | -4.13
17 | CN(C)c1ccccc1CN1CCCN(Cc2ccccc2N(C)C)C1c1ccncc1 [GANT61] + C=CC(=O)N1CCN(c2nc(=O)n(-c3c(C)ccnc3C(C)C)c3nc(-c4c(O)cccc4F)c(F)cc23)[C@@H](C)C1 [sotorasib] | -3.17 | -1.32
18 | CN(C)C(=N)NC(=N)N [Metformin] + C=CC(=O)N1CCN(c2nc(=O)n(-c3c(C)ccnc3C(C)C)c3nc(-c4c(O)cccc4F)c(F)cc23)[C@@H](C)C1 [sotorasib] | 5.93 | -0.945
19 | CC(C)c1cc(-c2n[nH]c(=O)n2-c2ccc3c(ccn3C)c2)c(O)cc1O [Ganetespib] + C=CC(=O)N1CCN(c2nc(=O)n(-c3c(C)ccnc3C(C)C)c3nc(-c4c(O)cccc4F)c(F)cc23)[C@@H](C)C1 [sotorasib] | -1.8 | 7.55
20 | CC(=O)[C@]1(O)Cc2c(O)c3c(c(O)c2[C@@H](O[C@H]2C[C@H](N)[C@H](O)[C@H](C)O2)C1)C(=O)c1ccccc1C3=O [Idarubicin] + C=CC(=O)N1CCN(c2nc(=O)n(-c3c(C)ccnc3C(C)C)c3nc(-c4c(O)cccc4F)c(F)cc23)[C@@H](C)C1 [sotorasib] | 8.08 | 5.83
21 | O=C(CCCCCCC(=O)Nc1ccccc1)NO [Vorinostat] + C=CC(=O)N1CCN(c2nc(=O)n(-c3c(C)ccnc3C(C)C)c3nc(-c4c(O)cccc4F)c(F)cc23)[C@@H](C)C1 [sotorasib] | 8.52 | 14.9
22 | O=C(O)C1(C(=O)O)CCC1.[NH2-].[NH2-].[Pt+2] [Carboplatin] + C=CC(=O)N1CCN(c2nc(=O)n(-c3c(C)ccnc3C(C)C)c3nc(-c4c(O)cccc4F)c(F)cc23)[C@@H](C)C1 [sotorasib] | 11.6 | -4.17
23 | COc1cc2nccc(Oc3ccc(NC(=O)C4(C(=O)Nc5ccc(F)cc5)CC4)cc3)c2cc1OC [XL-184] + C=CC(=O)N1CCN(c2nc(=O)n(-c3c(C)ccnc3C(C)C)c3nc(-c4c(O)cccc4F)c(F)cc23)[C@@H](C)C1 [sotorasib] | 11.7 | 14
24 | CNC(=O)c1cc(Oc2ccc(NC(=O)Nc3ccc(Cl)c(C(F)(F)F)c3)c(F)c2)ccn1 [Regorafenib] + C=CC(=O)N1CCN(c2nc(=O)n(-c3c(C)ccnc3C(C)C)c3nc(-c4c(O)cccc4F)c(F)cc23)[C@@H](C)C1 [sotorasib] | 7.32 | -5.66
25 | COc1ccc2nc3ccc(OC)cc3c(SCCCN)c2c1 + C=CC(=O)N1CCN(c2nc(=O)n(-c3c(C)ccnc3C(C)C)c3nc(-c4c(O)cccc4F)c(F)cc23)[C@@H](C)C1 [sotorasib] | 11.5 | -2.67
26 | Cc1ccc(NC(=O)c2ccc(CN3CCN(C)CC3)cc2)cc1Nc1nccc(-c2cccnc2)n1 [Imatinib] + C=CC(=O)N1CCN(c2nc(=O)n(-c3c(C)ccnc3C(C)C)c3nc(-c4c(O)cccc4F)c(F)cc23)[C@@H](C)C1 [sotorasib] | -1.79 | 2.47
27 | Cn1nnc2c(C(N)=O)ncn2c1=O [Temozolomide] + C=CC(=O)N1CCN(c2nc(=O)n(-c3c(C)ccnc3C(C)C)c3nc(-c4c(O)cccc4F)c(F)cc23)[C@@H](C)C1 [sotorasib] | 6.39 | -4.91
28 | COc1cc([C@@H]2c3cc4c(cc3[C@@H](O[C@@H]3O[C@@H]5CO[C@@H](C)O[C@H]5[C@H](O)[C@H]3O)[C@H]3COC(=O)[C@H]23)OCO4)cc(OC)c1O [Etoposide] + C=CC(=O)N1CCN(c2nc(=O)n(-c3c(C)ccnc3C(C)C)c3nc(-c4c(O)cccc4F)c(F)cc23)[C@@H](C)C1 [sotorasib] | 14.1 | 4.54
29 | Nc1nc(F)nc2c1ncn2[C@@H]1O[C@H](CO)[C@@H](O)[C@@H]1O [Fludarabine] + C=CC(=O)N1CCN(c2nc(=O)n(-c3c(C)ccnc3C(C)C)c3nc(-c4c(O)cccc4F)c(F)cc23)[C@@H](C)C1 [sotorasib] | 9.97 | -1.86
30 | Cc1ncc([N+](=O)[O-])n1CCOC(=O)NC(Nc1ncccn1)C(Cl)(Cl)Cl (stereo not given) [Apcin] + C=CC(=O)N1CCN(c2nc(=O)n(-c3c(C)ccnc3C(C)C)c3nc(-c4c(O)cccc4F)c(F)cc23)[C@@H](C)C1 [sotorasib] | -0.45 | 4.14
